According to patent US7514452B2, “2-furancarboxylic acid hydrazides and pharmaceutical compositions containing the same” (Dainippon Pharmaceutical Co., Ltd, priority 2002, dated 2009):

Tests used:
[1] = molecular target: glucagon receptor (Mus musculus, UniProt Q61606); experiment: Experiment for glucagon binding inhibition, mouse hepatic membrane (125I-glucagon); settings: male ddY mouse hepatic membrane, 125I-glucagon 50 pM, 25° C. for 30 minutes; read-out: Glucagon binding inhibitory activity IC50 (nM) Mouse
Protocol: (§1) The preparation of membrane from mouse and rat livers was carried out according to the method described in Bioorg. Med. Chem. Lett. 1992, 12, 915-918 in this experiment and ^125I-glucagon binding activity was measured with these membranes as glucagon receptor's samples. Livers were removed from male SD rats (about 250 g body weight per rat) and male ddY mice (about 30 g body weight per mouse). […] The homogenate was centrifuged for 15 minutes at 30,000×g. […] The precipitaion thus obtained was used as a hepatic membrane sample. […] The mixture was incubated at 25° C. for 30 minutes. […] The filter was washed 3 times with 50 mM Tris-HCl buffer (pH 7.2), and the radioactivity of the filter was measured by a γ counter (ARC-360, Aloka Co., Ltd.). […] Each experiment was carried out in duplicate. […] The concentration at 50% inhibition of binding (IC50) was calculated using a pseudo Hill plot.

[2] = molecular target: glucagon receptor (Rattus norvegicus, UniProt P30082); experiment: Experiment for glucagon binding inhibition, rat hepatic membrane (125I-glucagon); settings: male SD rat hepatic membrane, 125I-glucagon 50 pM, 25° C. for 30 minutes; read-out: Glucagon binding inhibitory activity IC50 (nM) Rat
Protocol: as §1

glucagon receptor (Rattus norvegicus, UniProt P30082), sequence (P30082 27-485): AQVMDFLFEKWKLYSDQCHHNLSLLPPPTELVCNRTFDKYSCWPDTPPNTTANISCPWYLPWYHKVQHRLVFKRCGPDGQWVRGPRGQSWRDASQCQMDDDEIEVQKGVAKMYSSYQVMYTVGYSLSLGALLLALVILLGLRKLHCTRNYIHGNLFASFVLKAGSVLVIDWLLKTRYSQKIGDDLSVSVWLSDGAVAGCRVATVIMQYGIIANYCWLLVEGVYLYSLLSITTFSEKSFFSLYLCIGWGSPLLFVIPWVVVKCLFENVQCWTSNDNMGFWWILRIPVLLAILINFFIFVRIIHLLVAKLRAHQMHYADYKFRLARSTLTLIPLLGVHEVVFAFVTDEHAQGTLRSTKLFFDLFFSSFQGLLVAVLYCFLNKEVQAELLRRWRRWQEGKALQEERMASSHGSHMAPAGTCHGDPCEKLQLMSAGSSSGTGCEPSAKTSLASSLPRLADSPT
glucagon receptor (Mus musculus, UniProt Q61606), sequence (Q61606 27-485): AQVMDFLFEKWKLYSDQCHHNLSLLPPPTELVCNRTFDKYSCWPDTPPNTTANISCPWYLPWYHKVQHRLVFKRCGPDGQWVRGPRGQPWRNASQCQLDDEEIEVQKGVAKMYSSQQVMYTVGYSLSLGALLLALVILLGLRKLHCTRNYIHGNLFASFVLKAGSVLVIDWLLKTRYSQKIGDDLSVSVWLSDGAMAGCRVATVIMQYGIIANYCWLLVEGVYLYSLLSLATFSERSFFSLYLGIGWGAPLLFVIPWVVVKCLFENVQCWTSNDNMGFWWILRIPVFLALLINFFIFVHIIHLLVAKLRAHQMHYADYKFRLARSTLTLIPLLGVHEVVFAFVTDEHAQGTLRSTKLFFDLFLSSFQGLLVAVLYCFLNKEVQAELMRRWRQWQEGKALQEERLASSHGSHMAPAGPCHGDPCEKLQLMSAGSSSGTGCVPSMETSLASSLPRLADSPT

Row | Compound | IC50 [1] | IC50 [2] | melting point
1 | N#Cc1cc(C(=O)NNC(=O)c2occ(-c3ccc(F)cc3)c2-c2ccc(F)cc2)ccc1O [Example 45, 3,4-Bis(4-fluorophenyl)-2-furancarboxylic acid 2-(3-cyano-4-hydroxybenzoyl)hydrazide] | 120 nM | 220 nM | 243 to 245 °C
2 | CCCCOc1cccc(-c2ccoc2C(=O)NNC(=O)c2ccc(O)c(C#N)c2)c1 [Example 107, 3-(3-Butoxyphenyl)-2-furancarboxylic acid 2-(3-cyano-4-hydroxybenzoyl)hydrazide] | 360 nM | 140 nM | 186 to 188 °C
3 | Cc1cc(C)c(C)c(COc2ccc(-c3ccoc3C(=O)NNC(=O)c3ccc(O)c([N+](=O)[O-])c3)cc2)c1C [Example 113, 3-[4-(2,3,5,6-Tetramethylbenzyloxy)phenyl]-2-furancarboxylic acid 2-(4-hydroxy-3-nitrobenzoyl)hydrazide] | 43 nM | 28 nM | 203 to 204 °C
4 | Cc1ccccc1COc1cccc(-c2ccoc2C(=O)NNC(=O)c2ccc(O)c([N+](=O)[O-])c2)c1 [Example 119, 3-[3-(2-methylbenzyloxy)phenyl]-2-furancarboxylic acid 2-(4-hydroxy-3-nitrobenzoyl)hydrazide] | 9.6 nM | 16 nM | 114 to 115 °C
5 | CS(=O)(=O)c1ccc(COc2cccc(-c3ccoc3C(=O)NNC(=O)c3ccc(O)c([N+](=O)[O-])c3)c2)cc1 [Example 120, 3-[3-(4-Methylsulfonylbenzyloxy)phenyl]-2-furancarboxylic acid 2-(4-hydroxy-3-nitrobenzoyl)hydrazide] | 27 nM | 37 nM | 114 to 117 °C
6 | Cc1cccc(COc2cccc(-c3ccoc3C(=O)NNC(=O)c3ccc(O)c([N+](=O)[O-])c3)c2)c1 [Example 123, 3-[3-(3-Methylbenzyloxy)phenyl]-2-furancarboxylic acid 2-(4-hydroxy-3-nitrobenzoyl)hydrazide] | 65 nM | 33 nM | 144 to 145 °C
7 | Cc1ccc(C)c(COc2cccc(-c3ccoc3C(=O)NNC(=O)c3ccc(O)c([N+](=O)[O-])c3)c2)c1 [Example 127, 3-[3-(2,5-Dimethylbenzyloxy)phenyl]-2-furancarboxylic acid 2-(4-hydroxy-3-nitrobenzoyl)hydrazide] | 7.8 nM | 8.6 nM | 131 to 132 °C
8 | Cc1ccc(COc2cccc(-c3ccoc3C(=O)NNC(=O)c3ccc(O)c([N+](=O)[O-])c3)c2)c(C)c1 [Example 128, 3-[3-(2,4-Dimethylbenzyloxy)phenyl]-2-furancarboxylic acid 2-(4-hydroxy-3-nitrobenzoyl)hydrazide] | 2.8 nM | 3.4 nM | 172 to 173 °C
9 | Cc1ccc(COc2cccc(-c3ccoc3C(=O)NNC(=O)c3ccc(O)c([N+](=O)[O-])c3)c2)cc1C [Example 129, 3-[3-(3,4-Dimethylbenzyloxy)phenyl]-2-furancarboxylic acid 2-(4-hydroxy-3-nitrobenzoyl)hydrazide] | 6.1 nM | 5.2 nM | 157 to 162 °C
10 | CS(=O)(=O)c1ccc(COc2cccc(-c3ccoc3C(=O)NNC(=O)c3ccc(O)c(C#N)c3)c2)cc1 [Example 136, 3-[3-(4-methylsulfonylbenzyloxy)phenyl]-2-furancarboxylic acid 2-(3-cyano-4-hydroxybenzoyl)hydrazide] | 48 nM | 96 nM | 235 to 237 °C
11 | COc1ccc(COc2cccc(-c3ccoc3C(=O)NNC(=O)c3ccc(O)c([N+](=O)[O-])c3)c2)cn1 [Example 164, 3-[3-(2-Methoxy-5-pyridylmethyloxy)phenyl]-2-furancarboxylic acid 2-(4-hydroxy-3-nitrobenzoyl)hydrazide] | 6.5 nM | 3.9 nM | 180 to 181 °C
12 | COc1ccc(COc2cccc(-c3ccoc3C(=O)NNC(=O)c3ccc(O)c([N+](=O)[O-])c3)c2)cc1 [Example 176, 3-[3-(4-Methoxybenzyloxy)phenyl]-2-furancarboxylic acid 2-(4-hydroxy-3-nitrobenzoyl)hydrazide] | 5.2 nM | 6.4 nM | 172 to 174 °C
13 | CCCCOc1cccc(-c2ccoc2C(=O)NNC(=O)c2ccc(O)c([N+](=O)[O-])c2)c1 [Example 181, 3-(3-Butoxyphenyl)-2-furancarboxylic acid 2-(4-hydroxy-3-nitrobenzoyl)hydrazide] | 62 nM | 30 nM | 135 to 138 °C

Results, then the compound that gave them:

Row | IC50 [1] | IC50 [2] | melting point | Compound
14 | 15 nM | 14 nM | 159 to 161 °C | Cc1ccc(COc2cccc(-c3ccoc3C(=O)NNC(=O)c3ccc(O)c([N+](=O)[O-])c3)c2)cc1 [Example 126, 3-[3-(4-Methylbenzyloxy)phenyl]-2-furancarboxylic acid 2-(4-hydroxy-3-nitrobenzoyl)hydrazide]
15 | 9.3 nM | 5.5 nM | 190 to 193 °C | CCCCc1ccc(-c2ccoc2C(=O)NNC(=O)c2ccc(O)c([N+](=O)[O-])c2)cc1 [Example 142, 3-(4-butylphenyl)-2-furancarboxylic acid 2-(4-hydroxy-3-nitrobenzoyl)hydrazide]
16 | 56 nM | 89 nM | 154 to 156 °C | O=C(NNC(=O)c1occc1-c1ccccc1)c1ccc(O)c([N+](=O)[O-])c1 [Example 143, 3-Phenyl-2-furancarboxylic acid 2-(4-hydroxy-3-nitrobenzoyl)hydrazide]
17 | 190 nM | 100 nM | 126 to 128 °C | Cc1cccc(-c2ccoc2C(=O)NNC(=O)c2ccc(O)c([N+](=O)[O-])c2)c1 [Example 145, 3-(3-Methylphenyl)-2-furancarboxylic acid 2-(4-hydroxy-3-nitrobenzoyl)hydrazide]
18 | 38 nM | 27 nM | 180 to 182 °C | Cc1ccc(-c2ccoc2C(=O)NNC(=O)c2ccc(O)c([N+](=O)[O-])c2)cc1 [Example 146, 3-(4-Methylphenyl)-2-furancarboxylic acid 2-(4-hydroxy-3-nitrobenzoyl)hydrazide]
19 | 73 nM | 90 nM | 127 to 129 °C | Cc1ccc(-c2ccoc2C(=O)NNC(=O)c2ccc(O)c([N+](=O)[O-])c2)cc1C [Example 150, 3-(3,4-Dimethylphenyl)-2-furancarboxylic acid 2-(4-hydroxy-3-nitrobenzoyl)hydrazide]
20 | 250 nM | 120 nM | 182 to 183 °C | CC(C)c1cccc(-c2ccoc2C(=O)NNC(=O)c2ccc(O)c([N+](=O)[O-])c2)c1 [Example 152, 3-(3-Isopropylphenyl)-2-furancarboxylic acid 2-(4-hydroxy-3-nitrobenzoyl)hydrazide]
21 | 18 nM | 24 nM | 194 to 196 °C | CC(C)c1ccc(-c2ccoc2C(=O)NNC(=O)c2ccc(O)c([N+](=O)[O-])c2)cc1 [Example 153, 3-(4-Isopropylphenyl)-2-furancarboxylic acid 2-(4-hydroxy-3-nitrobenzoyl)hydrazide]
22 | 45 nM | 44 nM | 189 to 191 °C | CCc1ccc(-c2ccoc2C(=O)NNC(=O)c2ccc(O)c([N+](=O)[O-])c2)cc1 [Example 156, 3-(4-Ethylphenyl)-2-furancarboxylic acid 2-(4-hydroxy-3-nitrobenzoyl)hydrazide]
23 | 7.1 nM | 5.9 nM | 144 to 146 °C | CCCCCCc1ccc(-c2ccoc2C(=O)NNC(=O)c2ccc(O)c([N+](=O)[O-])c2)cc1 [Example 158, 3-(4-Hexylphenyl)-2-furancarboxylic acid 2-(4-hydroxy-3-nitrobenzoyl)hydrazide]
24 | 60 nM | 31 nM | 156 to 157 °C | CCCCCOc1ccc(-c2ccoc2C(=O)NNC(=O)c2ccc(O)c([N+](=O)[O-])c2)cc1 [Example 159, 3-(4-Pentyloxyphenyl)-2-furancarboxylic acid 2-(4-hydroxy-3-nitrobenzoyl)hydrazide]
25 | 3.4 nM | 2.9 nM | 174 to 176 °C | CCCc1ccc(-c2ccoc2C(=O)NNC(=O)c2ccc(O)c([N+](=O)[O-])c2)cc1 [Example 160, 3-(4-Propylphenyl)-2-furancarboxylic acid 2-(4-hydroxy-3-nitrobenzoyl)hydrazide]
26 | 140 nM | 100 nM | 155 to 156 °C | CCCCOc1ccc(-c2ccoc2C(=O)NNC(=O)c2ccc(O)c([N+](=O)[O-])c2)cc1 [Example 161]
27 | 8.6 nM | 9.6 nM | 163 to 165 °C | CCCCCc1ccc(-c2ccoc2C(=O)NNC(=O)c2ccc(O)c([N+](=O)[O-])c2)cc1 [Example 162, 3-(4-Pentylphenyl)-2-furancarboxylic acid 2-(4-hydroxy-3-nitrobenzoyl)hydrazide]
28 | 46 nM | 84 nM | 122 to 124 °C | CC(C)CCOc1cccc(-c2ccoc2C(=O)NNC(=O)c2ccc(O)c([N+](=O)[O-])c2)c1 [Example 180, 3-(3-Isopentyloxyphenyl)-2-furancarboxylic acid 2-(4-hydroxy-3-nitrobenzoyl)hydrazide]
